Experimental data published in US7902346B2, “Fusion protein comprising FK506 binding protein and DNA encoding the same” (Industry Academic Cooperation Foundation, Hallym University, priority 2006, dated 2011).

Key:
[1] = test system: epidermis of mouse; experiment: Penetration of fusion protein into epidermis of mouse; conditions: in vivo
[2] = test system: human skin primary fibroblast cells; experiment: Intracellular transduction of fusion protein into skin cells, Western blot analysis; format: cell-based
Description: The human skin primary fibroblast cells obtained from Catholic University medical school (Korea) were cultured in Dulbecco's modified Eagle's medium (DMEM) containing 20 mM HEPES/NaOH (pH 7.4), 5 mM NaHCO3, 10% fetal bovine serum (FBS) and antibiotics ([…], 100 U/ml penicillin) at 37° C. under a humidified condition of 95% air and 5% CO2. For the transduction of Pep-1-FK506 binding proteins, skin cells were grown about […] to confluence on a 6-well plate. The culture medium was then replaced with fresh solution containing 10% fetal bovine serum. After skin cells were treated with one of 3 kinds of fusion protein of the FK506 binding protein (Pep-1 peptide is bound C-, N- or C-/N-terminus of FK506 binding protein respectively) for 1 hr, the cells were then treated with trypsin-EDTA and washed with phosphate-buffered saline (PBS). Thereafter the cells were harvested for the preparation of cell extracts to perform Western blot analysis.
Western blot analysis was performed to identify intracellular transduction of the fusion protein of FK506 binding protein. The protein was purified in nature form. […]
The transduced Pep-1-FK506BP proteins on the polyacrylamide gel were electrophoretically transferred to a nitrocellulose membrane. […]

[3] = test system: cyclooxygenase-2; experiment: Immunity inhibition effect: lipopolysaccharide-induced cyclooxygenase-2 expression in skin cells, Western blot; format: cell-based, human
Description: Thereafter, one of 3 kinds of the fusion protein of FK506BP was added to the each group of cells, respectively. After lipopolysaccharides were added, the expression of cyclooxygenase-2 was monitored via the Western Blot analysis.

## Pep-1-FK506BP: Fusion protein of human FK506 binding protein with Pep-1 peptide (SEQ ID NO: 3) and six histidines at the amino terminus; Seq. No. 7
[1]
  penetration into epidermis of mouse: effectively penetrated
[2]; native fusion protein, 0.5-5 μM for 60 min and 5 μM for 10-60 min (FIG. 3)
  transduction into skin cells (western blot): transduced into skin cells in a time- and concentration-dependent manner
[2]; skin cells treated with 5 μM for 10-60 min (FIG. 3B)
  time in which the protein was transduced: ≤ 10 min
[3]
  apoptosis induced by lipopolysaccharides: inhibited apoptosis
[3]; fusion protein together with FK506, compared with fusion protein alone
  effect on lipopolysaccharide-induced cyclooxygenase-2 expression, treatment together with FK506: more effective
[3]; western blot (FIG. 5), 10 μM fusion protein
  expression of cyclooxygenase-2 induced by lipopolysaccharides: inhibited
